Experimental data from paper PMC4499133, “ATP-dependent motor activity of the transcription termination factor Rho from Mycobacterium tuberculosis” (Nucleic Acids Research, 2015).

Molecular target: T1, MtbRho (transcription termination factor Rho) (Mycobacterium tuberculosis, UniProt P9WHF3)
T1 construct: WT MtbRho, N-terminal His tag, hexamer
Experiment: biochemical

T1 sequence (P9WHF3 whole entry): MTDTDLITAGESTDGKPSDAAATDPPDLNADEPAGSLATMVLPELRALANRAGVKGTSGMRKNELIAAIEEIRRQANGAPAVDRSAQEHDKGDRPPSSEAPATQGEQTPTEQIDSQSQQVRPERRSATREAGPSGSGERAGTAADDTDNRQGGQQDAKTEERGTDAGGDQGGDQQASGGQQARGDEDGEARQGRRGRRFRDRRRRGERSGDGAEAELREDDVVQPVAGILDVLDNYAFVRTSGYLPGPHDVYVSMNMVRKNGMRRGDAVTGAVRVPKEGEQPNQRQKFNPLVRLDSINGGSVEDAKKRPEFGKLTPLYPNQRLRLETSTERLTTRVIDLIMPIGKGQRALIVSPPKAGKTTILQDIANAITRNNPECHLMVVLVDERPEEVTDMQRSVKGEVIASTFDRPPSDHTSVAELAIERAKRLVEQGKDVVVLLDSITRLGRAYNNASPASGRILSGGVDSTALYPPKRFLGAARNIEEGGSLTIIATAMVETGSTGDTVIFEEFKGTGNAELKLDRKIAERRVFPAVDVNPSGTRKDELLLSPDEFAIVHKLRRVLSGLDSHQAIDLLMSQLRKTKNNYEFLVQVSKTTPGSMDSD

For `C=C1CCO[C@]2([C@@H](O)[C@@](C)(O)CO)NC(=O)[C@@]1(O)NC2=O` [BCM, bicyclomycin], the IC50 was 157 ± 20 µM.
